Assay results taken from ChEMBL document CHEMBL4184231, “Selective inhibition of monoamine oxidase A by hispidol” (Bioorg Med Chem Lett, 2018).

How the values were obtained:
[1] = target: T1, Amine oxidase [flavin-containing] A (Homo sapiens, UniProt P21397); experiment: Inhibition of human recombinant MAOA using kynuramine as substrate preincubated for 30 mins followed by substrate addition
T1 sequence (P21397 whole entry): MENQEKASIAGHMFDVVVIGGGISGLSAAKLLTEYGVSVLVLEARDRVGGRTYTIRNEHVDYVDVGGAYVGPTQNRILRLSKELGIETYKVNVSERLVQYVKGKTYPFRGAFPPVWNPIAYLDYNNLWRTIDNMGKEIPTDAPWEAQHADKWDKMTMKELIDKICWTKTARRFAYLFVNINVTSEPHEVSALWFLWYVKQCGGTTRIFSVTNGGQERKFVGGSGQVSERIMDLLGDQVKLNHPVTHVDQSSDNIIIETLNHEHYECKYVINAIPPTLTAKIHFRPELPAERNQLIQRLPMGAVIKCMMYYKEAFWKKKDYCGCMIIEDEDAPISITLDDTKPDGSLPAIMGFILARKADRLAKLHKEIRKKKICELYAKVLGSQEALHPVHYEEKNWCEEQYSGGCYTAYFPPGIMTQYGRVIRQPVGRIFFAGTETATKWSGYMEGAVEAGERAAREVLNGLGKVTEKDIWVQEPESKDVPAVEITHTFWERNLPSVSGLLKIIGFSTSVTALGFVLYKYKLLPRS

[2] = target: T1, Amine oxidase [flavin-containing] A; experiment: Competitive inhibition of human recombinant MAOA using 0.006 to […] kynuramine as substrate preincubated for 30 mins followed by substrate addition by Lineweaver-Burk plot
[3] = target: T1, Amine oxidase [flavin-containing] A; experiment: Time dependent inhibition of human recombinant MAOA using kynuramine as substrate preincubated for up to 30 mins followed by substrate addition
[4] = target: T1, Amine oxidase [flavin-containing] A; experiment: Reversible inhibition of human recombinant MAOA assessed as residual enzyme activity at 0.5 uM pre-incubated with enzyme for 30 mins followed by dialysis with pH 7.2 sodium phosphate buffer for 6 hrs followed by 0.06 mM kynuramine substrate addition; details: read-out: INH
[5] = target: T1, Amine oxidase [flavin-containing] A; experiment: Inhibition of human recombinant MAOA assessed as residual enzyme activity at 0.5 uM pre-incubated for 30 mins followed by 0.06 mM kynuramine substrate addition; details: read-out: INH
[6] = target: T2, Amine oxidase [flavin-containing] B (Homo sapiens, UniProt P27338); experiment: Inhibition of human recombinant MAOB assessed as residual enzyme activity at 5 uM pre-incubated for 30 mins followed by 0.06 mM benzylamine substrate addition
T2 sequence (P27338 whole entry): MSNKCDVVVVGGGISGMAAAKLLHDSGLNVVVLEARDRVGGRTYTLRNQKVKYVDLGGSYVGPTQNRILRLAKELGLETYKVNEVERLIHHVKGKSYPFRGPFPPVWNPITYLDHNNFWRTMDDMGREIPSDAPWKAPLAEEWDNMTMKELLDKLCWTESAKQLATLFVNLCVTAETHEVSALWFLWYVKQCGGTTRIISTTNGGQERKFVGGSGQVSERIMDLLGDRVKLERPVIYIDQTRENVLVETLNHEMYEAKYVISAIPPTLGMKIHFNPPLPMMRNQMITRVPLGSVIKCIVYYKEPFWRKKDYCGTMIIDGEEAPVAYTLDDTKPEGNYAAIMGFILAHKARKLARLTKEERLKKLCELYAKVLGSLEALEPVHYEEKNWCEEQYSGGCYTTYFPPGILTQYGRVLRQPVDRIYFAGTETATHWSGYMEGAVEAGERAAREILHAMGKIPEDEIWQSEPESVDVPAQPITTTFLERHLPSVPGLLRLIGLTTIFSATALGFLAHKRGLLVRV

[7] = target: T2, Amine oxidase [flavin-containing] B; experiment: Reversible inhibition of human recombinant MAOB assessed as residual enzyme activity at 5 uM pre-incubated with enzyme for 30 mins followed by dialysis with pH 7.2 sodium phosphate buffer for 6 hrs followed by 0.06 mM benzylamine substrate addition; details: pH 7.2, 6 h
[8] = target: T1, Amine oxidase [flavin-containing] A; experiment: Inhibition of human recombinant MAOA assessed as residual enzyme activity at 0.01 uM pre-incubated for 30 mins followed by 0.06 mM kynuramine substrate addition; details: read-out: Activity
[9] = target: T1, Amine oxidase [flavin-containing] A; experiment: Irreversible inhibition of human recombinant MAOA assessed as residual enzyme activity at 0.01 uM pre-incubated with enzyme for 30 mins followed by dialysis with pH 7.2 sodium phosphate buffer for 6 hrs followed by 0.06 mM kynuramine substrate addition; details: read-out: Activity
[10] = target: T2, Amine oxidase [flavin-containing] B; experiment: Reversible inhibition of human recombinant MAOB assessed as residual enzyme activity at 2 times IC50 pre-incubated with enzyme for 30 mins followed by dialysis with pH 7.2 sodium phosphate buffer for 6 hrs followed by 0.06 mM benzylamine substrate addition; details: pH 7.2, 6 h
[11] = target: T2, Amine oxidase [flavin-containing] B; experiment: Inhibition of human recombinant MAOB assessed as residual enzyme activity at 2 time IC50 pre-incubated for 30 mins followed by 0.06 mM benzylamine substrate addition
Homo sapiens = species: Homo sapiens; experiment: Selectivity index, ratio of IC50 for human recombinant MAOB to IC50 for human recombinant MAOA
[12] = target: T2, Amine oxidase [flavin-containing] B; experiment: Inhibition of human recombinant MAOB using benzylamine as substrate preincubated for 30 mins followed by substrate addition
[13] = target: T2, Amine oxidase [flavin-containing] B; experiment: Inhibition of human recombinant MAOB at 80 uM using benzylamine as substrate preincubated for 30 mins followed by substrate addition
[14] = target: T1, Amine oxidase [flavin-containing] A; experiment: Inhibition of human recombinant MAOA assessed as residual enzyme activity at 2 uM pre-incubated for 30 mins followed by 0.06 mM kynuramine substrate addition; details: read-out: Activity
[15] = target: T1, Amine oxidase [flavin-containing] A; experiment: Reversible inhibition of human recombinant MAOA assessed as residual enzyme activity at 2 uM pre-incubated with enzyme for 30 mins followed by dialysis with pH 7.2 sodium phosphate buffer for 6 hrs followed by 0.06 mM kynuramine substrate addition; details: read-out: Activity

For `O=C1/C(=C/c2ccc(O)cc2)Oc2cc(O)ccc21`, the IC50 [1] was 260 nM, the Ki [2] was 100 nM and the TDI [3] was “Not Active”. For the same compound, the activity at 0.5 µM [4] was 83.7%, the activity at 0.5 µM [5] was 29.8% and the Activity [6] was 87.5%. The Activity [7] was 28%.
`COc1cc(O)c2c(=O)oc3cc(O)cc(C)c3c2c1` was tested, and the IC50 [1] was 1710 nM.
In the case of `COc1ccc(-c2cc(=O)c3c(O)cc(O)cc3o2)cc1` [ACACETIN], the IC50 [1] is reported as 190 nM.
With `O=c1cc(-c2ccc(O)cc2)oc2cc(O)cc(O)c12` [APIGENIN] the IC50 [1] was 1550 nM.
For `C#CCN(C)CCCOc1ccc(Cl)cc1Cl` [CLORGILINE], the activity at 0.01 µM [8] was 18.3% and the activity at 0.01 µM [9] was 17.3%.
In the case of `CC(C)=CC(=O)O[C@H]1Cc2cc3ccc(=O)oc3cc2OC1(C)C` [DECURSIN], the IC50 [1] is reported as 1760 nM.
`NCCNC(=O)c1ccc(Cl)cn1` [LAZABEMIDE] showed an Activity [10] of 35% and an Activity [11] of 72.9%.
`O=C1/C(=C/c2ccc(O)c(O)c2)Oc2cc(O)ccc21` [SULFURETIN] was tested, and the IC50 [1] was 4160 nM, the Ratio IC50 (Homo sapiens) was greater than 19.2 and the IC50 [12] was greater than 80000 nM. For the same compound, the TDI [3] was “Not Active” and the inhibition at 80 µM [13] was 20.8%.
`Cc1cccc(N2CC(CO)OC2=O)c1` (configuration not stated) [TOLOXATONE] gave an activity at 2 µM [14] of 75.4% and an activity at 2 µM [15] of 30.7%.
